Assay results published in patent publication US10392368B2, “Pyrazolo and triazolo bicyclic compounds as JAK kinase inhibitors” (THERAVANCE BIOPHARMA R&D IP, LLC, priority 2017, dated 2019).

How the values were obtained:
[1] = Colon and plasma mouse pharmacokinetics; type: in vivo; settings: male Balb/c mice, 10 mg/kg PO, 0.5, 2 and 6 hours
Protocol: 6 male Balb/c mice were administered 10 mg/kg of compound in 1% HPMC+0.1% Tween-80 by PO administration. At 0.5, 2 and 6 hours after dose administration, animals were anesthetized, and terminal blood samples were collected by cardiac puncture, followed by collection of colon contents and colon tissue.
Blood samples were collected into K2EDTA and stored on wet ice until processed to plasma by centrifugation (12000 rpm at 4° C.). Plasma samples were transferred to cluster tubes and placed on dry ice prior to freezer storage. The colon contents from each animal were collected at each terminal blood collection time point. The colon tissues were flushed with saline and patted dry. The colon and colon content tissues were homogenized using sterile water containing 0.1% formic acid 9:1 (water:tissue, v/w). The homogenized tissues and colon contents were transferred to cluster tubes and placed on dry ice prior to freezer storage. All samples were analyzed using LC/MS/MS against analytical standards.
The composite pharmacokinetic parameters of the compounds were determined by non-compartmental analysis using Phoenix WinNonlin Version 6 (Certara, St. Louis, Mo.) and using mean values from 2 animals/time point. For plasma concentrations below the quantification limit (BQL), the lowest concentration measurable or the BLOQ (below limit of quantification) was used.
A colon to plasma ratio was determined as the ratio of the colon AUC to the plasma AUC.

[2] = test system: oxazolone-induced colitis; assay: Mouse model of oxazolone-induced colitis; type: in vivo; settings: 3 mg/kg (PO, BID)
Protocol: Oxazolone-induced colitis is an experimental model that has a histological resemblance to human ulcerative colitis (Heller et al. Immunology, 2002, 17, 629-638). Adult BALB/C mice from Harlan were used in the assay. On day 1, animals were lightly anesthetized with isoflurane and the hairs between the shoulder were carefully removed before oxazolone (4%, 150 μL, 4:1 acetone:olive oil formulation) or vehicle solution was slowly applied for skin sensitization. Seven days after skin sensitization, the mice were fasted around 6 hours prior, anesthetized with ketamine/xylazine injection, and a 1 mL syringe equipped with a 3.5-F catheter, filled with oxazolone solution, was inserted carefully about 4 cm into the colon of the mouse. Following insertion, 50 μL of the oxazolone solution (0.8% in 1:1 ethanol:water formulation) was injected very slowly (over 30 sec using an injection pump) into the colon. Drug treatment (PO, QD or BID or TID) or vehicle was initiated a day prior to the oxazolone intrarectal (IR) challenge. Two-day post oxazolone intrarectal challenge, the disease was assessed by treatment-blinded experimenters for each mouse according to the criteria score: stool consistency score (0, normal; 2, loose; 4, diarrhea), gross bleeding score (0, absence; 2, blood tinged; 4, presence); Combined stool score endpoint=stool consistency score+stool blood score.
Select compounds were tested in the assay.

[3] = test system: IL-2 stimulated pSTAT5 in CD4+ T cells; assay: Inhibition of IL-2 stimulated pSTAT5 in CD4+ T cells isolated from murine splenocytes; type: cell-based; settings: Mus musculus, AlphaLisa, read-out: pIC50, inhibition of IL-2 stimulated pSTAT5 (converted)
Protocol: The potency of test compounds for inhibition of interleukin-2 (IL-2) stimulated STAT5 phosphorylation was measured in the CD4+ T cells isolated from murine splenocytes using AlphaLisa. Because IL-2 signals through JAK3, this assay provides a measure of JAK3 cellular potency in mouse.
Phosphorylated STAT5 was measured via the AlphaLISA SureFire Ultra pSTAT5 (Tyr694/699) kit (PerkinElmer).
CD4+ T cells were isolated from murine splenocytes via negative selection on a magnetic column (Miltnyi Biotec) and re-suspended in assay media (phenol red-free DMEM (Life Technologies) supplemented with 10% FBS (ATCC)). Cells were seeded at 50,000 cells/well in assay media (2 μL/well). Compounds were serially diluted in DMSO and diluted to 2× final concentration in assay media. Compound was added (4 μl/well) and the cells incubated at 37° C., 5% CO2 for 1 hour, followed by the addition of IL-2 (R&D Systems; final concentration 7 ng/ml) in pre-warmed assay media (2 μL) for 30 minutes. After cytokine stimulation, cells were lysed with 2 μl of 5× AlphaLisa Lysis Buffer (PerkinElmer). The lysate was shaken at 900 rpm for 10 minutes at room temperature (RT). Phosphorylated STAT5 was measured via the pSTAT5 AlphaLisa kit (PerkinElmer). Freshly prepared acceptor bead mixture was dispensed onto lysate (5 ul) under green filtered <100 lux light. Plates were shaken at 900 rpm for 2 mins, briefly spun down, and incubated for 2 hrs at RT in the dark. Donor beads were dispensed (5 μl) under green filtered <100 lux light. Plates were shaken at 900 rpm for 2 mins, briefly spun down, and incubated overnight at RT in the dark. Luminescence was measured with excitation at 689 nm and emission at 570 nm using an EnVision plate reader (PerkinElmer) under green filtered <100 lux light.
To determine the inhibitory potency of test compounds in response to IL-2, the average emission intensity of beads bound to pSTAT5 was measured in primary CD4+ T cells isolated from murine splenocytes. IC50 values were determined from analysis of the inhibition curves of signal intensity vs compound concentration. Data are expressed as pIC50 (negative decadic logarithm IC50) values (mean±standard deviation).

splenic NK cells = assay: Immunosuppression effects in mouse splenic natural killer (NK) cells; settings: positive control, 30 mg/kg PO, BID
Protocol: Select compounds were assessed in the mouse splenic cell model following the same treatment paradigm used in the oxazolone-induced colitis model (assay 8).
Adult male Balb/C mice from Harlan were used for the study. The test compound and a Jak3 covalent inhibitor standard 2-propen-1-one, 1-[(2S,5R)-2-methyl-5-(7H-pyrrolo[2,3-d]pyrimidin-4-ylamino)-1-piperidinyl] (30 mg/kg, BID) as a positive control, were dosed orally for three days to naïve mice. Spleens were harvested up to 4 hours post last dose and crushed immediately for cell subtype staining. Prior to fixation, fluorophore-labelled antibodies for CD19 (FITC; B cells), CD3e (PE; pan T cells) and CD49e (APC; NK cells) were incubated with splenocyte samples from each animal to allow for simultaneous, multiple subtype % analysis on the flow cytometer. The number of total spleen cells for each animal was measured by Scepter™ 2.0 Handheld Automated Cell Counter.
The absolute number of lymphocyte subtype population (e.g., splenic B, T and NK cells) was calculated from the percentage of each subtype times the total spleen cells for each animal. A one-way ANOVA, with Fisher's LSD post hoc test, was used to compare the splenic lymphocytes number of the vehicle and test compound groups. The a level was set at p<0.05. Data were presented as the mean±SEM for each group.

[4] = test system: IL-2 induced pSTAT5 in thymus; assay: Systemic target engagement: murine model of IL-2 induced pSTAT5 induction in thymus; type: in vivo, mouse; settings: PO, 10, 30 and 50 mg/kg
Excerpt: IL-2 is an important cytokine underlying the pathophysiology of gastro-intestinal diseases such as […] bowel disease (IBD; Guan and Zhang. Mediators Inflamm, 2017; 4810258). IL-2 binds to cell surface receptors activating members of the Janus family of kinases (JAK), specifically JAK3, which then phosphorylates STAT5 and subsequently activates further transcription pathways. In this model, a dose of IL-2 was delivered systemically to mice to induce the phosphorylation of STAT5 (pSTAT5) which was then measured as the endpoint.
Adult male Balb/c mice from Harlan were used in the assay. Animals were administered test compound via oral gavage (PO, 10 or 30 mg/kg for single dose studies; 10-60 mg/kg for dose response studies) on the afternoon of the day prior to study and then in the morning on the day of study. Two hours after the second PO dose administration, mice were injected intraperitoneally (i.p.) with 100 μl of an appropriate IL-2 dose (for a total of 1-5 μg/mouse depending upon IL-2 batch; R&D Systems). 90-120 minutes after IL-2 insult, thymus samples were harvested.

colon to plasma ratio (colon AUC to plasma AUC) [1]	Structure (SMILES)	Kp ([1]; mouse, colon tissue / plasma, read-out: colon to plasma ratio (colon AUC to plasma AUC))	combined stool score endpoint as compared with vehicle treated animals [2]	IC50 [3] [µM]	Splenic NK cell counts (splenic NK cells)	inhibition of pSTAT5 induction in the thymus [4]
	CN(C)C/C=C/C(=O)N1CC(C(C)(C)Oc2cc(-c3ccc(O)c(F)c3)cc3[nH]ncc23)C1 [Compound 19, (E)-1-(3-(2-((6-(3-fluoro-4-hydroxyphenyl)-1H-indazol-4-yl)oxy)propan-2-yl)azetidin-1-yl)-4-(dimethylamino)but-2-en-1-one]	> 200	statistically significant decrease	< 1		
2.8	C=CC(=O)N1C[C@H](Nc2ncnc3[nH]ccc23)CC[C@@H]1C [PF-06651600, 2-propen-1-one, 1-[(2S,5R)-2-methyl-5-(7H-pyrrolo[2,3-d]pyrimidin-4-ylamino)-1-piperidinyl], reference compound]				significantly decreased	significant inhibition
